The results in this text go back to patent US8871789B2, “Method of preventing or treating viral infection” (The United States of America, as represented by the …, priority 2010, dated 2014).

Molecules are shown by their SMILES.

One experiment deals with T1, JMJD2E (Homo sapiens, UniProt B2RXH2).
T1 sequence (B2RXH2 1-506): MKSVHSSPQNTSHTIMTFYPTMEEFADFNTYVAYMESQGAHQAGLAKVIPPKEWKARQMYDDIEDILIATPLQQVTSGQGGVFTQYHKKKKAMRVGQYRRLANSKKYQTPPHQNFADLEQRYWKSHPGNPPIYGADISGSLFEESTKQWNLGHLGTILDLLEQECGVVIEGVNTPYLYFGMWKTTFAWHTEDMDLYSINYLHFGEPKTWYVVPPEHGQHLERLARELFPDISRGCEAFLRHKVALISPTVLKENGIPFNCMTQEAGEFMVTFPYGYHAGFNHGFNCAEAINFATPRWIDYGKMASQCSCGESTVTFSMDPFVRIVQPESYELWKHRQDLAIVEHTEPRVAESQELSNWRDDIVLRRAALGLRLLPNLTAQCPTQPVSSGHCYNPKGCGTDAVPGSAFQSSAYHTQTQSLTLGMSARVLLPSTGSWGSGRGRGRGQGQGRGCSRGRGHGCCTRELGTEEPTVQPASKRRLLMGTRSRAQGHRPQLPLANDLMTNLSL
In words: AlphaLISA assay, JMJD2E histone demethylase inhibition. Format: biochemical. To be noted: Table 2; JMJD2E; AlphaLISA, in triplicate; read-out: IC50.

Experiment [1] concerns HSV-1. The experiment in a line: MRC-5 cells infected with HSV-1 at high MOI (IE mRNA, viral yields). In kind it is cell-based. As to the method:
FIG. 15 is a bar graph showing MRC-5 cells treated with DMSO or 50 mM ML324 that were infected with HSV-1 at the indicated multiplicity of infection (MOI). Viral IE and cellular mRNA levels were quantitated at 2 hours after infection. *P<0.0001, two-way ANOVA with Tukey's post hoc test. Data are means±SEM.
FIG. 16 is a bar graph showing MRC-5 cells treated with DMSO or 50 mM ML324 that were infected with HSV-1 at the indicated MOI. Viral yields were determined at 24 hours after infection. *P<0.0001, two-way ANOVA with Tukey's post hoc test. Data are means±SEM.

In experiment [2] the test system is HSV-1. In kind it is cell-based, Balb/c mice. Further details: reduction of viral reactivation (viral yield): unit of the concentration uncertain. As to the method: FIG. 18 is a dot plot showing latently infected ganglia that were explanted in the presence of DMSO, ACV (100 mM), or ML324 (50 mM) for 48 hrs. Viral yields were determined from one half of each ganglia at 48 hrs (DMSO, ACV, ML324) and from the other half of each ganglia after drug reversal for an additional 72 hrs (ACV-R, ML324-R) [Wilcoxon matched pairs signed rank test, ACV vs ACV-R n=8, ML324 vs ML324-R n=10]. Data are means±SEM.
FIG. 19 is a dot plot showing viral yields from HSV-1 latently infected trigeminal ganglia that were explanted in the presence of DMSO, or 2 mM DMOG or 50 mM ML324 for 48 hours (DMSO versus DMOG: P=0.0015, Wilcoxon matched-pairs signed rank test; n=12; DMSO versus ML324: P<0.0001; n=20). Data are means±SEM.
Viral yields decrease from HSV-1 latently infected ganglia explanted in the presence of LSD1 or JMJD2 inhibitors (FIG. 11). Balb/c mice were infected with 5×10^6 PFU HSV-1 (strain F) per eye after corneal scarification. Latently infected mice were sacrificed 45 days post clearance of the primary infection and trigeminal ganglia were rapidly explanted into culture in the presence of 2 mM DMOG, 2 mM TCP, or control (DMSO or ACV, acyclovir) for 48 hours. Post explant incubation, the ganglia were homogenized and briefly sonicated. The reactivated viral yield of each ganglia was determined by titering the clarified supernatant on Vero cells. Statistical comparisons were made using Wilcoxon signed rank test (paired ganglia) with a statistical significance of <0.05. Each data point was the result of a single ganglia divided and treated in the presence and absence of DMSO and DMOG or DMSO and TCP. Therefore, a Wilcoxon signed rank test was used to assess differences between each treated and untreated sample. The significant difference between DMSO control and DMOG was p=0.0018. This test used an exact p-value for small sample sizes with an a level of 0.05. n=20. Analyses were made using Prism (V5.0a) and are expressed as the mean+/−s.e.m.

Experiment [3] concerns HSV-1. In words: Plaque assay of Vero cells infected with HSV-1. To be noted: for # Plaques: 12 hours infection, then ACV or ML324 for 48 hours. Also noted: # Plaques: dose or concentration left out as unconfirmed. In kind it is cell-based. As to the method: ML324 was ˜75-fold more efficient than DMOG. Additionally, ML324 (i) reduced viral yields in a dose-dependent manner (˜5 logs at 50 mM, FIG. 14); (ii) blocked viral IE gene transcription and reduced viral yields when cells were infected at high multiplicity of infection (MOI; FIGS. 15 and 16); and (iii) suppressed IE gene transcription, even when added at times after infection (>50% reduction at 2 hours after infection; FIG. 17). As further evidence for the efficacy of ML324, cells were infected with HSV to allow for a productive cycle of infection, followed by treatment with DMSO, ACV, or ML324.

Where [4] appears, read: treatment after productive cycle of infection.

As for `CN(C)CCCNC(=O)c1ccc(-c2cc(O)c3ncccc3c2)cc1` [Compound 4, N-(3-(dimethylamino)propyl)-4-(8-hydroxyquinolin-6-yl)benzamide], the IC50 on JMJD2E worked out at 0.92 µM. Also, the “viral IE gene transcription at high multiplicity of infection” value in the experiment with HSV-1 [1] (50 mM ML324, 2 hours after infection, FIG. 15) is “blocked”. Besides, the “viral yields at high multiplicity of infection” value with HSV-1 [1] (50 mM ML324, 24 hours after infection, FIG. 16) was “reduced”. The “reduction of viral reactivation (viral yield)” value with HSV-1 [2] (50 (unit uncertain), 48 hours explant, FIG. 19) was determined as 4.5 log. Also, the “viral replication in ganglia after drug withdrawal” value in the experiment on HSV-1 [2] (after ML324 withdrawal, additional 72 hrs, FIG. 18) is recorded as “robust viral replication”. Further, the “# Plaques” value in the experiment with HSV-1 [3] (MOI .001) is 0. Moreover, the “# Plaques” value with HSV-1 [3] (MOI .01) stood at 2. Further, in the experiment with HSV-1 [3] (setting [4]), the “formation of HSV plaques” value is reported as “markedly suppressed” and the “spread of infection to adjacent cells (UL29 immunofluorescence)” value is on record as “markedly suppressed”.

One may read the IC50 as the midpoint of a concentration-inhibition curve.
